Test results reported in PubChem BioAssay AID2060342 (Molecular Pharmacology Branch, DTP, NCI, 2025).

System: 171881-019-R-J1-PDC multicell spheroid viability
Assay: Anticancer human tumor 171881-019-R-J1-PDC patient-derived invasive breast carcinoma cell line growth inhibition [IpAb]
Settings: for IC50: curve of first compound; for viability, T/C: stronger effect = lower value
Procedure, shortened: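 Multi-cell spheroids of 60% tumour cells, 25% HUVEC and 15% MSC in ultra-low-attachment U-bottom wells, treated with agents combined with ipatasertib or abemaciclib. Half-log ranges top out near clinical Cmax, or 10 microM when Cmax is unknown.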

[1] = second compound 0.01 µM, first compound 0.00316 µM
[2] = second compound 0.01 µM, first compound 0.01 µM
[3] = second compound 0.01 µM, first compound 0.0316 µM
[4] = second compound 0.01 µM, first compound 0.1 µM
[5] = second compound 0.0316 µM, first compound 0.00316 µM
[6] = second compound 0.0316 µM, first compound 0.01 µM
[7] = second compound 0.0316 µM, first compound 0.0316 µM
[8] = second compound 0.0316 µM, first compound 0.1 µM
[9] = second compound 0.1 µM, first compound 0.00316 µM
[10] = second compound 0.1 µM, first compound 0.01 µM
[11] = second compound 0.1 µM, first compound 0.0316 µM
[12] = second compound 0.1 µM, first compound 0.1 µM
[13] = second compound 0.316 µM, first compound 0.00316 µM
[14] = second compound 0.316 µM, first compound 0.01 µM
[15] = second compound 0.316 µM, first compound 0.0316 µM
[16] = second compound 0.316 µM, first compound 0.1 µM
[17] = second compound 1 µM, first compound 0.00316 µM
[18] = second compound 1 µM, first compound 0.01 µM
[19] = second compound 1 µM, first compound 0.0316 µM
[20] = second compound 1 µM, first compound 0.1 µM
[21] = second compound 0.01 µM, first compound 0.316 µM
[22] = second compound 0.01 µM, first compound 1 µM
[23] = second compound 0.01 µM, first compound 3.16 µM
[24] = second compound 0.01 µM, first compound 10 µM
[25] = second compound 0.0316 µM, first compound 0.316 µM
[26] = second compound 0.0316 µM, first compound 1 µM
[27] = second compound 0.0316 µM, first compound 3.16 µM
[28] = second compound 0.0316 µM, first compound 10 µM
[29] = second compound 0.1 µM, first compound 0.316 µM
[30] = second compound 0.1 µM, first compound 1 µM
[31] = second compound 0.1 µM, first compound 3.16 µM
[32] = second compound 0.1 µM, first compound 10 µM
[33] = second compound 0.316 µM, first compound 0.316 µM
[34] = second compound 0.316 µM, first compound 1 µM
[35] = second compound 0.316 µM, first compound 3.16 µM
[36] = second compound 0.316 µM, first compound 10 µM
[37] = second compound 1 µM, first compound 0.316 µM
[38] = second compound 1 µM, first compound 1 µM
[39] = second compound 1 µM, first compound 3.16 µM
[40] = second compound 1 µM, first compound 10 µM
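Note: spheroids exposed to the agents for seven days before readout.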

`CC(C)n1nc(-c2ccc3oc(N)nc3c2)c2c(N)ncnc21` + CCN1CCN(Cc2ccc(Nc3ncc(F)c(-c4cc(F)c5nc(C)n(C(C)C)c5c4)n3)nc2)CC1 was tested, and the IC50 (second compound 0.01 µM) was 5.63 nM, the IC50 (second compound 0.0316 µM) was 5.98 nM and the IC50 (second compound 0.1 µM) was 5.6 nM. The IC50 (second compound 0.316 µM) was 6.25 nM, the IC50 (second compound 1 µM) was 9.54 nM and the viability, T/C (second compound 0.01 µM, first compound 0.000316 µM) was 99%. For the same molecule, the viability, T/C (second compound 0.01 µM, first compound 0.001 µM) was 102%, the viability, T/C [1] was 73.9% and the viability, T/C [2] was 25.7%. It also gave a viability, T/C [3] of 4.34%, a viability, T/C [4] of 2.21% and a viability, T/C (second compound 0.0316 µM, first compound 0.000316 µM) of 97.9%. It also gave a viability, T/C (second compound 0.0316 µM, first compound 0.001 µM) of 112%, a viability, T/C [5] of 80.5% and a viability, T/C [6] of 24.8%. It also gave a viability, T/C [7] of 5.1%, a viability, T/C [8] of 2.53% and a viability, T/C (second compound 0.1 µM, first compound 0.000316 µM) of 114%. For the same molecule, the viability, T/C (second compound 0.1 µM, first compound 0.001 µM) was 103%, the viability, T/C [9] was 75.8% and the viability, T/C [10] was 24.3%. The viability, T/C [11] was 5.52%, the viability, T/C [12] was 2.76% and the viability, T/C (second compound 0.316 µM, first compound 0.000316 µM) was 131%. For the same molecule, the viability, T/C (second compound 0.316 µM, first compound 0.001 µM) was 106%, the viability, T/C [13] was 81.4% and the viability, T/C [14] was 28.5%. The viability, T/C [15] was 9.75%, the viability, T/C [16] was 3.47% and the viability, T/C (second compound 1 µM, first compound 0.000316 µM) was 140%. It also gave a viability, T/C (second compound 1 µM, first compound 0.001 µM) of 125%, a viability, T/C [17] of 89.8% and a viability, T/C [18] of 48.6%. For the same molecule, the viability, T/C [19] was 21.4% and the viability, T/C [20] was 10.4%.

`CC1(C)CCC(CN2CCN(c3ccc(C(=O)NS(=O)(=O)c4ccc(NCC5CCOCC5)c([N+](=O)[O-])c4)c(Oc4cnc5[nH]ccc5c4)c3)CC2)=C(c2ccc(Cl)cc2)C1` + CCN1CCN(Cc2ccc(Nc3ncc(F)c(-c4cc(F)c5nc(C)n(C(C)C)c5c4)n3)nc2)CC1 was tested, and the IC50 (second compound 0.01 µM) was 5420 nM, the IC50 (second compound 0.0316 µM) was 6190 nM and the IC50 (second compound 0.1 µM) was 5540 nM. The IC50 (second compound 0.316 µM) was 5970 nM, the IC50 (second compound 1 µM) was 6550 nM and the viability, T/C [3] was 84.5%. It also gave a viability, T/C [4] of 79%, a viability, T/C [21] of 76.6% and a viability, T/C [22] of 72.4%. For the same molecule, the viability, T/C [23] was 83.4%, the viability, T/C [24] was 16.6% and the viability, T/C [7] was 89.7%. It also gave a viability, T/C [8] of 86.7%, a viability, T/C [25] of 86.8% and a viability, T/C [26] of 70.4%. For the same molecule, the viability, T/C [27] was 89.3%, the viability, T/C [28] was 25.3% and the viability, T/C [11] was 109%. For the same molecule, the viability, T/C [12] was 105%, the viability, T/C [29] was 98.9% and the viability, T/C [30] was 89%. The viability, T/C [31] was 79%, the viability, T/C [32] was 22.9% and the viability, T/C [15] was 120%. The viability, T/C [16] was 117%, the viability, T/C [33] was 109% and the viability, T/C [34] was 99.7%. For the same molecule, the viability, T/C [35] was 89.2%, the viability, T/C [36] was 21.1% and the viability, T/C [19] was 138%. The viability, T/C [20] was 139%, the viability, T/C [37] was 136% and the viability, T/C [38] was 128%. The viability, T/C [39] was 104% and the viability, T/C [40] was 18.4%.

`CCCS(=O)(=O)Nc1ccc(F)c(C(=O)c2c[nH]c3ncc(-c4ccc(Cl)cc4)cc23)c1F` + CCN1CCN(Cc2ccc(Nc3ncc(F)c(-c4cc(F)c5nc(C)n(C(C)C)c5c4)n3)nc2)CC1 gave an IC50 (second compound 0.01 µM) of over 10000 nM, an IC50 (second compound 0.0316 µM) of over 10000 nM and an IC50 (second compound 0.1 µM) of over 10000 nM. For the same molecule, the IC50 (second compound 0.316 µM) was over 10000 nM, the IC50 (second compound 1 µM) was over 10000 nM and the viability, T/C [3] was 103%. It also gave a viability, T/C [4] of 80.8%, a viability, T/C [21] of 98.6% and a viability, T/C [22] of 87%. The viability, T/C [23] was 82.9%, the viability, T/C [24] was 83.9% and the viability, T/C [7] was 96.1%. The viability, T/C [8] was 88.5%, the viability, T/C [25] was 90.9% and the viability, T/C [26] was 91.6%. It also gave a viability, T/C [27] of 85.4%, a viability, T/C [28] of 92.3% and a viability, T/C [11] of 113%. For the same molecule, the viability, T/C [12] was 94.9%, the viability, T/C [29] was 107% and the viability, T/C [30] was 98.4%. It also gave a viability, T/C [31] of 95.5%, a viability, T/C [32] of 94.1% and a viability, T/C [15] of 123%. The viability, T/C [16] was 129%, the viability, T/C [33] was 112% and the viability, T/C [34] was 113%. For the same molecule, the viability, T/C [35] was 106%, the viability, T/C [36] was 99.2% and the viability, T/C [19] was 143%. It also gave a viability, T/C [20] of 143%, a viability, T/C [37] of 141% and a viability, T/C [38] of 137%. The viability, T/C [39] was 130% and the viability, T/C [40] was 119%.

`COc1c(OCCCN2CCOCC2)ccc2c3n(c(=NC(=O)c4cnc(N)nc4)nc12)CCN3` + CCN1CCN(Cc2ccc(Nc3ncc(F)c(-c4cc(F)c5nc(C)n(C(C)C)c5c4)n3)nc2)CC1 gave an IC50 (second compound 0.01 µM) of 19.5 nM, an IC50 (second compound 0.0316 µM) of 21.1 nM and an IC50 (second compound 0.1 µM) of 20.3 nM. It also gave an IC50 (second compound 0.316 µM) of 23.5 nM, an IC50 (second compound 1 µM) of 31.5 nM and a viability, T/C [1] of 115%. For the same molecule, the viability, T/C [2] was 76.6%, the viability, T/C [3] was 31.9% and the viability, T/C [4] was 5.33%. The viability, T/C [21] was 1%, the viability, T/C [22] was 1.29% and the viability, T/C [5] was 113%. For the same molecule, the viability, T/C [6] was 76.2%, the viability, T/C [7] was 38.7% and the viability, T/C [8] was 4.99%. The viability, T/C [25] was 1%, the viability, T/C [26] was 1.5% and the viability, T/C [9] was 115%. The viability, T/C [10] was 80.2%, the viability, T/C [11] was 31.9% and the viability, T/C [12] was 5.31%. For the same molecule, the viability, T/C [29] was 0.99%, the viability, T/C [30] was 1.13% and the viability, T/C [13] was 110%. It also gave a viability, T/C [14] of 76.1%, a viability, T/C [15] of 45.3% and a viability, T/C [16] of 7.2%. For the same molecule, the viability, T/C [33] was 1.95%, the viability, T/C [34] was 1.08% and the viability, T/C [17] was 121%. It also gave a viability, T/C [18] of 82.6%, a viability, T/C [19] of 56.6% and a viability, T/C [20] of 17.2%. For the same molecule, the viability, T/C [37] was 4.08% and the viability, T/C [38] was 2%.

In the case of `Cc1nc(NC(=O)N2CCCC2C(N)=O)sc1-c1ccnc(C(C)(C)C(F)(F)F)c1` (stereo not given) + CCN1CCN(Cc2ccc(Nc3ncc(F)c(-c4cc(F)c5nc(C)n(C(C)C)c5c4)n3)nc2)CC1, the IC50 (second compound 0.01 µM) is reported as 783 nM, the IC50 (second compound 0.0316 µM) is reported as 733 nM and the IC50 (second compound 0.1 µM) is reported as 823 nM. The IC50 (second compound 0.316 µM) was 977 nM, the IC50 (second compound 1 µM) was 1560 nM and the viability, T/C [3] was 109%. It also gave a viability, T/C [4] of 112%, a viability, T/C [21] of 72% and a viability, T/C [22] of 44.7%. It also gave a viability, T/C [23] of 15.7%, a viability, T/C [24] of 1.42% and a viability, T/C [7] of 118%. It also gave a viability, T/C [8] of 108%, a viability, T/C [25] of 75.7% and a viability, T/C [26] of 40.9%. It also gave a viability, T/C [27] of 13.5%, a viability, T/C [28] of 2.7% and a viability, T/C [11] of 117%. For the same molecule, the viability, T/C [12] was 112%, the viability, T/C [29] was 75.9% and the viability, T/C [30] was 44.9%. It also gave a viability, T/C [31] of 18.3%, a viability, T/C [32] of 2.71% and a viability, T/C [15] of 130%. It also gave a viability, T/C [16] of 112%, a viability, T/C [33] of 85.7% and a viability, T/C [34] of 47.2%. The viability, T/C [35] was 23%, the viability, T/C [36] was 4.63% and the viability, T/C [19] was 137%. It also gave a viability, T/C [20] of 117%, a viability, T/C [37] of 89.8% and a viability, T/C [38] of 64.1%. The viability, T/C [39] was 29.7% and the viability, T/C [40] was 8.19%.
